Measured values: ChEMBL document CHEMBL5620398, “Membrane-active substituted triazines as antibacterial agents against Staphylococcus aureus with potential for low drug resistance and broad activity” (Eur J Med Chem, 2023)
Converted amounts (≈) assume the structure as drawn. The source made the active and inactive calls. The rule behind the calls is not given here.

What was measured:
[1] = tested on: Listeria; assay: Antibacterial activity against Listeria sps. assessed as inhibition of bacterial growth by two-fold serial broth dilution method; assay type: functional
[2] = tested on: Serratia marcescens; assay: Antibacterial activity against Serratia marcescens assessed as inhibition of bacterial growth by two-fold serial broth dilution method; assay type: functional
[3] = tested on: Escherichia coli; assay: Antibacterial activity against Escherichia coli assessed as inhibition of bacterial growth by two-fold serial broth dilution method; assay type: functional
[4] = tested on: Salmonella enterica; assay: Antibacterial activity against Salmonella enterica assessed as inhibition of bacterial growth by two-fold serial broth dilution method; assay type: functional
[5] = tested on: Staphylococcus aureus; assay: Antibacterial activity against Staphylococcus aureus assessed as inhibition of bacterial growth by two-fold serial broth dilution method; assay type: functional
[6] = tested on: Acinetobacter calcoaceticus; assay: Antibacterial activity against Acinetobacter calcoaceticus assessed as inhibition of bacterial growth by two-fold serial broth dilution method; assay type: functional
[7] = tested on: Enterococcus faecalis; assay: Antibacterial activity against Enterococcus faecalis assessed as inhibition of bacterial growth by two-fold serial broth dilution method; assay type: functional
[8] = tested on: Bacillus subtilis; assay: Antibacterial activity against Bacillus subtilis assessed as inhibition of bacterial growth by two-fold serial broth dilution method; assay type: functional
[9] = tested on: HEK293; assay: Cytotoxicity against human HEK293 cells at 0.01 uM by MTT assay; assay type: toxicity, cell-based; conditions: hek293, 0.01 µM
[10] = tested on: MDA-MB-468; assay: Cytotoxicity against human MDA-MB-468 cells at 10 uM; assay type: functional
[11] = tested on: HEK293; assay: Cytotoxicity against human HEK293 cells at 1 uM by MTT assay; assay type: toxicity, cell-based; conditions: hek293, 1 µM
[12] = tested on: HEK293; assay: Cytotoxicity against human HEK293 cells at 100 uM by MTT assay; assay type: toxicity, cell-based; conditions: hek293, 100 µM
[13] = tested on: HEK293; assay: Cytotoxicity against human HEK293 cells at 10 uM by MTT assay; assay type: toxicity, cell-based; conditions: hek293, 10 µM
[14] = tested on: SK-MEL-5; assay: Cytotoxicity against human SK-MEL-5 cells assessed as inhibition of cell growth at 10 uM; assay type: functional
[15] = tested on: HOP-92; assay: Cytotoxicity against human HOP-92 cells assessed as inhibition of cell growth at 10 uM; assay type: functional
[16] = tested on: MOLT-4; assay: Cytotoxicity against human MOLT-4 cells assessed as inhibition of cell growth at 10 uM; assay type: functional
[17] = tested on: COLO 205; assay: Cytotoxicity against human COLO 205 cells assessed as inhibition of cell growth at 10 uM; assay type: functional
[18] = tested on: HEK293; assay: Cytotoxicity against human HEK293 cells at 0.1 uM by MTT assay; assay type: toxicity, cell-based; conditions: hek293, 0.1 µM
[19] = tested on: A498; assay: Cytotoxicity against human A498 cells at 10 uM; assay type: functional
[20] = tested on: MDA-MB-435; assay: Cytotoxicity against human MDA-MB-435 cells at 10 uM; assay type: functional
[21] = tested on: M14; assay: Cytotoxicity against human M14 cells assessed as inhibition of cell growth at 10 uM; assay type: functional
[22] = tested on: Enterococcus faecalis; assay: Potency index, ratio of amoxicillin MIC to test compound MIC for antibacterial activity against Enterococcus faecalis; assay type: functional
[23] = tested on: Enterococcus faecalis; assay: Potency index, ratio of chloromycin MIC to test compound MIC for antibacterial activity against Enterococcus faecalis; assay type: functional

SMILES	MIC [1]	MIC [2]	MIC [3]	MIC [4]	MIC [5]	MIC [6]	MIC [7]	MIC [8]	further results
O=C1c2cccc3cccc(c23)C(=O)N1Nc1nc(Nc2ccc(F)cc2)nc(N2CCOCC2)n1	inactive	200 µg/mL (≈ 412 µM)	400 µg/mL (≈ 824 µM)	200 µg/mL (≈ 412 µM)	50 µg/mL (≈ 103 µM)	200 µg/mL (≈ 412 µM)	200 µg/mL (≈ 412 µM)	200 µg/mL (≈ 412 µM)	
O=C1c2cccc3cccc(c23)C(=O)N1Nc1nc(N2CCOCC2)nc(N2CCOCC2)n1	200 µg/mL (≈ 433 µM)	200 µg/mL (≈ 433 µM)	200 µg/mL (≈ 433 µM)	100 µg/mL (≈ 217 µM)	1.56 µg/mL (≈ 3.38 µM)	200 µg/mL (≈ 433 µM)	200 µg/mL (≈ 433 µM)	100 µg/mL (≈ 217 µM)	
CN(C)CCNc1nc(NN2C(=O)c3cccc4cccc(c34)C2=O)nc(N2CCOCC2)n1	50 µg/mL (≈ 108 µM)	25 µg/mL (≈ 54.1 µM)	200 µg/mL (≈ 432 µM)	100 µg/mL (≈ 216 µM)	100 µg/mL (≈ 216 µM)	100 µg/mL (≈ 216 µM)	200 µg/mL (≈ 432 µM)	200 µg/mL (≈ 432 µM)	
O=C1c2cccc3cccc(c23)C(=O)N1Nc1nc(NC2CCCCC2)nc(N2CCOCC2)n1	25 µg/mL (≈ 52.8 µM)	200 µg/mL (≈ 422 µM)	200 µg/mL (≈ 422 µM)	200 µg/mL (≈ 422 µM)	100 µg/mL (≈ 211 µM)	200 µg/mL (≈ 422 µM)	3.12 µg/mL (≈ 6.59 µM)	50 µg/mL (≈ 106 µM)	
O=C1c2cccc3cccc(c23)C(=O)N1Nc1nc(NCCN2CCOCC2)nc(N2CCOCC2)n1	0.048 µg/mL (≈ 0.0951 µM)	50 µg/mL (≈ 99.1 µM)	100 µg/mL (≈ 198 µM)	200 µg/mL (≈ 396 µM)	3.12 µg/mL (≈ 6.18 µM)	200 µg/mL (≈ 396 µM)	200 µg/mL (≈ 396 µM)	200 µg/mL (≈ 396 µM)	
CCN(CC)CCNc1nc(NN2C(=O)c3cccc4cccc(c34)C2=O)nc(N2CCOCC2)n1	0.19 µg/mL (≈ 0.387 µM)	12.5 µg/mL (≈ 25.5 µM)	200 µg/mL (≈ 408 µM)	200 µg/mL (≈ 408 µM)	100 µg/mL (≈ 204 µM)	200 µg/mL (≈ 408 µM)	200 µg/mL (≈ 408 µM)	50 µg/mL (≈ 102 µM)	
c1ccc(CNc2nc(NCc3ccccc3)nc(N3CCOCC3)n2)cc1	inactive	inactive	inactive	inactive	200 µg/mL (≈ 531 µM)	200 µg/mL (≈ 531 µM)	400 µg/mL (≈ 1060 µM)	inactive	
O=C1c2cccc3cccc(c23)C(=O)N1Nc1nc(NCc2ccc(F)cc2)nc(N2CCOCC2)n1	200 µg/mL (≈ 400 µM)	200 µg/mL (≈ 400 µM)	100 µg/mL (≈ 200 µM)	200 µg/mL (≈ 400 µM)	25 µg/mL (≈ 50 µM)	100 µg/mL (≈ 200 µM)	6.25 µg/mL (≈ 12.5 µM)	100 µg/mL (≈ 200 µM)	
C#CCNc1nc(NN2C(=O)c3cccc4cccc(c34)C2=O)nc(N2CCOCC2)n1	200 µg/mL (≈ 466 µM)	200 µg/mL (≈ 466 µM)	100 µg/mL (≈ 233 µM)	100 µg/mL (≈ 233 µM)	50 µg/mL (≈ 116 µM)	200 µg/mL (≈ 466 µM)	0.048 µg/mL (≈ 0.112 µM)	25 µg/mL (≈ 58.2 µM)	
O=C1c2cccc3cccc(c23)C(=O)N1Nc1nc(N2CCOCC2)nc(N2CCN(c3ccccc3)CC2)n1	0.39 µg/mL (≈ 0.727 µM)	50 µg/mL (≈ 93.2 µM)	inactive	200 µg/mL (≈ 373 µM)	100 µg/mL (≈ 186 µM)	200 µg/mL (≈ 373 µM)	200 µg/mL (≈ 373 µM)	50 µg/mL (≈ 93.2 µM)	Activity [9]: 14.05%; Activity [10]: -15.85%; Activity [11]: 13.01%; Activity [12]: 10.08%; Activity [13]: 12%; inhibition at 10 µM [14]: 95%; inhibition at 10 µM [15]: 92.5%; inhibition at 10 µM [16]: 81.6%; inhibition at 10 µM [17]: 96.5%; Activity [18]: 13.57%; Activity [19]: -3.13%; Activity [20]: -12.6%; inhibition at 10 µM [21]: 80.6%
C=CCNc1nc(NN2C(=O)c3cccc4cccc(c34)C2=O)nc(N2CCOCC2)n1	100 µg/mL (≈ 232 µM)	200 µg/mL (≈ 464 µM)	200 µg/mL (≈ 464 µM)	200 µg/mL (≈ 464 µM)	25 µg/mL (≈ 57.9 µM)	100 µg/mL (≈ 232 µM)	100 µg/mL (≈ 232 µM)	50 µg/mL (≈ 116 µM)	
CCN1CCN(c2nc(NN3C(=O)c4cccc5cccc(c45)C3=O)nc(N3CCOCC3)n2)CC1	3.12 µg/mL (≈ 6.39 µM)	100 µg/mL (≈ 205 µM)	100 µg/mL (≈ 205 µM)	200 µg/mL (≈ 409 µM)	50 µg/mL (≈ 102 µM)	200 µg/mL (≈ 409 µM)	200 µg/mL (≈ 409 µM)	200 µg/mL (≈ 409 µM)	
O=C1c2cccc3cccc(c23)C(=O)N1Nc1nc(N2CCOCC2)nc(N2CCN(Cc3ccccc3)CC2)n1	6.25 µg/mL (≈ 11.4 µM)	50 µg/mL (≈ 90.8 µM)	200 µg/mL (≈ 363 µM)	200 µg/mL (≈ 363 µM)	100 µg/mL (≈ 182 µM)	200 µg/mL (≈ 363 µM)	200 µg/mL (≈ 363 µM)	200 µg/mL (≈ 363 µM)	
N#Cc1ccc(CNc2nc(NN3C(=O)c4cccc5cccc(c45)C3=O)nc(N3CCOCC3)n2)cc1	200 µg/mL (≈ 395 µM)	200 µg/mL (≈ 395 µM)	200 µg/mL (≈ 395 µM)	400 µg/mL (≈ 790 µM)	100 µg/mL (≈ 197 µM)	100 µg/mL (≈ 197 µM)	100 µg/mL (≈ 197 µM)	400 µg/mL (≈ 790 µM)	
COc1ccc(CNc2nc(NN3C(=O)c4cccc5cccc(c45)C3=O)nc(N3CCOCC3)n2)cc1	50 µg/mL (≈ 97.7 µM)	200 µg/mL (≈ 391 µM)	200 µg/mL (≈ 391 µM)	100 µg/mL (≈ 195 µM)	6.25 µg/mL (≈ 12.2 µM)	100 µg/mL (≈ 195 µM)	3.12 µg/mL (≈ 6.11 µM)	12.5 µg/mL (≈ 24.4 µM)	
Cc1ccc(CNc2nc(NN3C(=O)c4cccc5cccc(c45)C3=O)nc(N3CCOCC3)n2)cc1	25 µg/mL (≈ 50.4 µM)	100 µg/mL (≈ 202 µM)	200 µg/mL (≈ 404 µM)	200 µg/mL (≈ 404 µM)	12.5 µg/mL (≈ 25.2 µM)	100 µg/mL (≈ 202 µM)	50 µg/mL (≈ 101 µM)	12.5 µg/mL (≈ 25.2 µM)	
O=c1[nH]cc(F)c(=O)[nH]1 [FLUOROURACIL]									inhibition at 10 µM [14]: 66.3%; inhibition at 10 µM [15]: 50.6%; inhibition at 10 µM [16]: 42.3%
CCCCNc1nc(NN2C(=O)c3cccc4cccc(c34)C2=O)nc(N2CCOCC2)n1	200 µg/mL (≈ 447 µM)	200 µg/mL (≈ 447 µM)	400 µg/mL (≈ 894 µM)	100 µg/mL (≈ 223 µM)	12.5 µg/mL (≈ 27.9 µM)	200 µg/mL (≈ 447 µM)	0.09 µg/mL (≈ 0.201 µM)	25 µg/mL (≈ 55.9 µM)	Ratio [22]: 17; Ratio [23]: 34
O=C1c2cccc3cccc(c23)C(=O)N1Nc1nc(N2CCCCC2)nc(N2CCOCC2)n1	50 µg/mL (≈ 109 µM)	200 µg/mL (≈ 435 µM)	400 µg/mL (≈ 870 µM)	200 µg/mL (≈ 435 µM)	1.56 µg/mL (≈ 3.39 µM)	200 µg/mL (≈ 435 µM)	inactive	6.25 µg/mL (≈ 13.6 µM)	
CN1CCN(c2nc(NN3C(=O)c4cccc5cccc(c45)C3=O)nc(N3CCOCC3)n2)CC1	0.006 µg/mL (≈ 0.0126 µM)	12.5 µg/mL (≈ 26.3 µM)	100 µg/mL (≈ 211 µM)	200 µg/mL (≈ 421 µM)	1.56 µg/mL (≈ 3.29 µM)	200 µg/mL (≈ 421 µM)	200 µg/mL (≈ 421 µM)	200 µg/mL (≈ 421 µM)	
CC1(C)S[C@@H]2[C@H](NC(=O)[C@H](N)c3ccc(O)cc3)C(=O)N2[C@H]1C(=O)O [AMOXICILLIN]	50 µg/mL (≈ 137 µM)	1.56 µg/mL (≈ 4.27 µM)	100 µg/mL (≈ 274 µM)	200 µg/mL (≈ 547 µM)	25 µg/mL (≈ 68.4 µM)	50 µg/mL (≈ 137 µM)	1.56 µg/mL (≈ 4.27 µM)	50 µg/mL (≈ 137 µM)	
